Data reported in patent US20130237478A1, “COMPOSITIONS AND METHODS FOR TREATMENT OF PERIPHERAL VASCULAR DISEASE” (TARIX PHARMACEUTICALS LTD., priority 2012, published 2013).
“Also recorded” adds a separate entry of the source. Positions of bridges follow the written chain, without caps; N, C: chain ends. No end group written: not given here.

Legend:
hind limb ischemia = test: Blood flow by non contact laser Doppler in mouse hind limb ischemia model; format: in vivo, Balb/c mice
Description: A stable hind limb ischemia model has been described previously and is generally characterized by uniform ischemic damage useful for examining the effect of various therapies (Goto, et al. Tokai J Exp Clin Med, 31(3):128 2006; Kang Y, et al. PLoS One. 2009; 4(1):e4275)). The hind limb ischemia model in mice used in this example involves two ligations of the proximal end of the femoral artery and its dissection between the two ligatures. The surgery causes obstruction of the blood flow and subsequently leads to severe ischemic damage (Goto, et al.; Kang, et al.). In this experiment, healthy adult female Balb/c mice were used. Hind limb ischemia was induced in mice using protocols previously described. Briefly, Balb/c female mice were maintained on a standard diet with water available ad libitum. Mice were anesthetized and an incision was made in the skin in the inguinal area. The femoral artery was ligated twice with 6-0 silk thread and transected between the ligatures after this the wound was closed with 4-0 silk thread and the mouse was allowed to recover. […]
Blood flow in legs from both sides of the animals was measured with a non contact laser Doppler before surgery and on days: 1, 7, 15, 21, 28, 35, 42 and 49 post operation. Blood flow measurements were expressed as the ratio of the flow in the ischemic limb to that in the normal limb.
The model used in this example is the same as for Example 1. Briefly, the hind limb ischemia model in mice used in this example involves two ligations of the proximal end of the femoral artery and its dissection between the two ligatures. The surgery causes obstruction of the blood flow and subsequently leads to severe ischemic damage (Goto, et al.; Kang, et al.). In this experiment, healthy adult female Balb/c mice were used. Hind limb ischemia was induced in mice using protocols previously described. Briefly, Balb/c female mice were maintained on a standard diet with water available ad libitum. Mice were anesthetized and an incision was made in the skin in the inguinal area. The femoral artery was ligated twice with 6-0 silk thread and transected between the ligatures after this the wound was closed with 4-0 silk thread and the mouse was allowed to recover.
An Angiotensin (1-7) polypeptide composition (PanCyte) and vehicle control (DPBS) were supplied as ready to use solutions and were stored at 4° C. until use. PanCyte was injected subcutaneously (500 μg/kg or 50 μg/kg) daily starting on day 1, 24 hours after inducing ischemia, until the end of the study. Negative control mice were injected subcutaneously with a vehicle.
The model and procedures used for this example is the same as for those in Examples 1 and 2, unless otherwise specified.
An Angiotensin (1-7) polypeptide composition (PanCyte, cyclized Asp^1-Arg^2-Val^3-Ser^4-Ile^5-His^6-Cys (SEQ ID NO:22)) and vehicle control (DPBS) were supplied as ready to use solutions and were stored at 4° C. until use. In groups 2F-5F, PanCyte was injected subcutaneously (1 μg/kg, 5 μg/kg, 25 μg/kg, 50 μg/kg) daily starting on day 1, 24 hours after inducing ischemia, until the end of the study. In group 6F, an osmotic Alzet pump was implanted subcutaneously and provided for continuous release of PanCyte over the duration of the study. Negative control mice were injected subcutaneously with vehicle (DPBS).

[1] = system: Transient middle cerebral artery occlusion (tMCAO); test: Body swing test after tMCAO stroke; format: in vivo, rats; details: for body swing performance vs vehicle: by Day 28
Experimental: (§1) For the purposes of this example, Transient middle cerebral artery occlusion (tMCAO) procedure Day is defined as “Day 1” in this study. On the day of surgery anesthesia were induced with 4% isoflurane in a mixture of 70% N2O and 30% O2 and maintained with 1.5-2% isoflurane.
(§2) The tMCAO procedures were performed according to the method described R. Schmid-Elsaesser et al. Briefly, the right CCA (Common Carotid Artery) was exposed through a midline neck incision and carefully dissected free from surrounding nerves and fascia—from its bifurcation to the base of the skull. The occipital artery branches of the ECA (External Carotid Artery) were then isolated, and these branches were dissected and coagulated. The ECA was dissected further distally and coagulated along with the terminal lingual and maxillary artery branches, which was then divided. The ICA (Internal Carotid Artery) was isolated and carefully separated from the adjacent vagus nerve, and the pterygopalatine artery was ligated close to its origin with a 5-0 nylon suture (SMI, Belgium). Next, a 4-0 silk suture was tied loosely around the mobilized ECA stump, and a 4 cm length of 4-0 monofilament nylon suture (the tip of the suture was blunted by using a flame, and the suture was coated with polylysine, prior to insertion) was inserted through the proximal ECA into the ICA and thence into the circle of Willis, effectively occluding the MCA. The surgical wound was closed and the animals were returned to their cages to recover from anesthesia. One hour and a half after occlusion rats were re-anesthetized, the monofilament was withdrawn to allow reperfusion, the surgical wound was closed and rats were returned to their cages.
Animals were subjected to a modified Modified Neurological Rating Scale (mNRS) at 24 hours post reperfusion. Only animals with an overall score of ≧10 were included in this study. Animals were allocated into the test groups, according to the mNRS results on day 2, in order to have similar distribution of rats performance between groups. Starting on day 2, 24 hours post-surgery, animals in groups 4, 5 and 7 were implanted subcutaneously with an osmotic Alzet pump and treated with either 500 μg/kg TXA127, 500 μg/kg PanCyte, or 50 μg/kg Linear PanCyte. Animals in groups 2, 3 and 6 received 500 μg/kg or 1,000 μg/kg TXA127 or 500 μg/kg PanCyte, administered subcutaneously via daily injection. Animals in group 1 were treated with a daily subcutaneous injection of a PBS (vehicle).
Each rat was held approximately one inch from the base of its tail. It was then elevated to an inch above a surface of a table. The rat was held in the vertical axis, defined as no more than 10° to either the left or the right side. A swing was recorded whenever the rat moves its head out of the vertical axis to either side. Before attempting another swing, the rat must return to the vertical position for the next swing to be counted. Twenty (20) total swings were counted. A normal rat typically has an equal number of swings to either side. Following focal ischemia, the rat tends to swing to the contralateral side (left side in this case). Body swing scores are expressed as a percentage of […] over total swings.

[2] = system: Transient middle cerebral artery occlusion (tMCAO); test: Stepping test (forelimb akinesia) after tMCAO stroke; format: in vivo, rats; details: all experimental conditions (Table 22); by Day 28 post-surgery
Experimental: as §1
as §2, with “One hour and a half after occlusion rats were re-anesthetized, the monofilament was withdrawn to allow reperfusion, the surgical wound was closed and rats were returned to their cages.” left out
Animals were tested for forelimb akinesia in a stepping test (ST). The animal was held with its hind limbs fixed with one hand and the forelimb not to be monitored with the other, while the unrestrained fore-paw touches the table. The number of adjusting steps are counted while the animal is moved sideways along the table surface (85 cm in approximately five seconds), in the forehand & backhand direction for both forelimbs. […]

Substance: cyclized Asp^1-Arg^2-Val^3-Ser^4-Ile^5-His^6-Cys (SEQ ID NO:22) (DRVSIHC; bridge 4-7; not fully specified; printed as Asp1-Arg2-Val3-Ser4-Ile5-His6-Cys7) [PanCyte, cyclic angiotensin peptide]
- blood flow restored (hind limb ischemia; Example 2, 50 μg/kg SC): 85 % of its normal values
- improvement in blood flow vs vehicle (hind limb ischemia; Example 2, 50 μg/kg SC daily (3F), from day 21 up to day 49, p<0.05-0.001): statistically significant improvement in blood flow
- blood flow restored (hind limb ischemia; Example 2, 500 μg/kg SC): 85 % of its normal values
- improvement in blood flow vs vehicle (hind limb ischemia; Example 2, 500 μg/kg SC daily (2F), from day 21 up to day 49, p<0.05-0.001): statistically significant improvement in blood flow
- improvement in blood flow vs vehicle (hind limb ischemia; Example 3, 1 μg/kg SC daily (2F), days 42 and 49): blood flow improvement reached statistically significance
- improvement in blood flow vs vehicle (hind limb ischemia; Example 3, 5 μg/kg SC daily (3F), days 42 and 49): blood flow improvement reached statistically significance
- improvement in blood flow vs vehicle (hind limb ischemia; Example 3, 25 μg/kg SC daily (4F), days 42 and 49): blood flow improvement reached statistically significance
- improvement in blood flow vs vehicle (hind limb ischemia; Example 3, 50 μg/kg SC daily injections (5F), day 35 up to day 49): significant improvement in blood flow
- improvement in blood flow vs vehicle (hind limb ischemia; Example 3, 50 μg/kg continuous SC by Alzet pump (6F), day 14 up to day 49): Statistically significant improvement in blood flow; also recorded: particularly good and early blood perfusion restoration
- blood flow restored (hind limb ischemia; Example 3, SC 1-50 μg/kg, dose dependent manner): up to 84 % of its normal values
- body swing performance vs vehicle ([1]; 500 μg/kg SC daily): significant improvement in performance
- body swing performance ([1]; 500 μg/kg by Alzet pump, by Day 21): showed improvement
- body swing performance vs vehicle ([1]; 500 μg/kg by Alzet pump): significant improvement in performance
- stepping test performance vs vehicle [2]: significantly improved the performance
